In the NIST ThermoML archive (doi:10.1016/j.fluid.2018.04.012):

Assay: xn = mol fraction of the nth substance listed
Settings: Liquid, Vibrating tube method

CC(C)OC(C)C [diisopropyl ether] + CC(C)O
mass density [kg/m3]
Settings	x2 = 0.1503	x2 = 0.2979	x2 = 0.4228	x2 = 0.5	x2 = 0.6737	x2 = 0.8483
298.15 K, 100 kPa	725.5	732.6	739.4	743.7	754.9	768
298.15 K, 1000 kPa	726.6	733.6	740.5	744.7	755.8	768.9
298.15 K, 5000 kPa	731.3	738.2	744.8	749	759.9	772.6
298.15 K, 10000 kPa	736.8	743.6	749.9	754	764.7	777.1
298.15 K, 15000 kPa	742.1	748.6	754.6	758.8	769.1	781.3
298.15 K, 20000 kPa	746.8	753.2	759.2	763.2	773.4	785.2
298.15 K, 25000 kPa	751.4	757.6	763.5	767.5	777.4	789
298.15 K, 30000 kPa	755.7	761.9	767.6	771.5	781.2	792.6
298.15 K, 35000 kPa	759.7	765.8	771.5	775.2	784.8	796
298.15 K, 40000 kPa	763.6	769.6	775.2	778.9	788.3	799.3
298.15 K, 45000 kPa	767.4	773.2	778.8	782.4	791.7	802.6
298.15 K, 50000 kPa	770.9	776.7	782.2	785.8	794.9	805.6
298.15 K, 55000 kPa	774.4	780.1	785.5	789	798.1	808.6
298.15 K, 60000 kPa	777.7	783.3	788.7	792.1	801.1	811.5
298.15 K, 65000 kPa	780.9	786.5	791.8	795.2	804	814.3
298.15 K, 70000 kPa	784	789.5	794.8	798.2	806.8	817.1
298.15 K, 80000 kPa	789.9	795.3	800.5	803.8	812.3	822.3
298.15 K, 90000 kPa	795.6	800.8	805.9	809.1	817.5	827.3
298.15 K, 100000 kPa	800.8	806	810.9	814.2	822.4	832
298.15 K, 110000 kPa	805.8	811	815.8	818.9	827.1	836.6
298.15 K, 120000 kPa	810.5	815.6	820.4	823.5	831.5	840.8
298.15 K, 130000 kPa	815.1	820.1	824.8	827.9	835.7	844.9
298.15 K, 140000 kPa	819.5	824.4	829	832.1	839.8	848.9
313.15 K, 100 kPa	709.6	716.9	724	728.5	740.2	754
313.15 K, 1000 kPa	710.8	718.1	725.1	729.6	741.3	755
313.15 K, 5000 kPa	716.3	723.3	730	734.4	745.9	759.2
313.15 K, 10000 kPa	722.4	729.3	735.7	740.1	751.1	764.1
313.15 K, 15000 kPa	728.1	734.8	741	745.3	756	768.7
313.15 K, 20000 kPa	733.4	739.9	746	750.2	760.7	773
313.15 K, 25000 kPa	738.2	744.6	750.7	754.6	764.8	776.9
313.15 K, 30000 kPa	743.1	749.4	755.1	759.2	769.2	781
313.15 K, 35000 kPa	747.6	753.6	759.3	763.3	773.1	784.7
313.15 K, 40000 kPa	751.7	757.7	763.4	767.2	776.8	788.2
313.15 K, 45000 kPa	755.7	761.6	767.2	770.9	780.4	791.7
313.15 K, 50000 kPa	759.5	765.4	770.9	774.5	783.9	794.9
313.15 K, 55000 kPa	763.3	769	774.4	778.1	787.3	798.1
313.15 K, 60000 kPa	766.8	772.5	777.8	781.4	790.5	801.2
313.15 K, 65000 kPa	770.2	775.8	781.1	784.7	793.7	804.2
313.15 K, 70000 kPa	773.5	779	784.3	787.7	796.6	807
313.15 K, 80000 kPa	779.6	785.1	790.3	793.6	802.3	812.5
313.15 K, 90000 kPa	785.6	790.9	796	799.3	807.8	817.8
313.15 K, 100000 kPa	791.2	796.3	801.3	804.5	812.9	822.7
313.15 K, 110000 kPa	796.4	801.5	806.4	809.6	817.9	827.5
313.15 K, 120000 kPa	801.3	806.4	811.2	814.4	822.4	832
313.15 K, 130000 kPa	806.2	811.2	815.8	819	826.9	836.3
313.15 K, 140000 kPa	810.9	815.8	820.2	823.5	831.3	840.6
333.15 K, 100 kPa	687.4	694.9	702.4	707	719.4	734.1
333.15 K, 1000 kPa	689	696.4	703.7	708.4	720.7	735.3
333.15 K, 5000 kPa	695.4	702.6	709.5	714.2	726.1	740.2
333.15 K, 10000 kPa	702.7	709.6	716.1	720.7	732.2	745.8
333.15 K, 15000 kPa	709.3	716	722.3	726.8	737.9	751.1
333.15 K, 20000 kPa	715.3	721.8	728	732.3	743.1	755.9
333.15 K, 25000 kPa	720.9	727.3	733.3	737.5	748	760.5
333.15 K, 30000 kPa	726.2	732.4	738.3	742.4	752.6	764.9
333.15 K, 35000 kPa	731.1	737.2	743	747	757	769
333.15 K, 40000 kPa	735.8	741.7	747.4	751.4	761.2	772.9
333.15 K, 45000 kPa	740.2	746	751.7	755.4	765.1	776.6
333.15 K, 50000 kPa	744.4	750.2	755.7	759.4	768.9	780.3
333.15 K, 55000 kPa	748.4	754.1	759.6	763.2	772.6	783.8
333.15 K, 60000 kPa	752.2	757.8	763.3	766.8	776.1	787
333.15 K, 65000 kPa	756	761.5	766.9	770.4	779.4	790.3
333.15 K, 70000 kPa	759.5	765	770.3	773.7	782.7	793.5
333.15 K, 80000 kPa	766.3	771.6	776.8	780.1	788.9	799.3
333.15 K, 90000 kPa	772.6	777.8	782.9	786.2	794.8	805
333.15 K, 100000 kPa	778.5	783.6	788.6	791.8	800.2	810.2
333.15 K, 110000 kPa	784.1	789.2	794	797.3	805.5	815.3
333.15 K, 120000 kPa	789.4	794.4	799.1	802.3	810.4	820.1
333.15 K, 130000 kPa	794.5	799.4	804	–	–	–
